Results from patent US20260125356A1, “TREATMENT OF LEISHMANIASIS” (THE UNIVERSITY OF DURHAM, priority 2022, published 2026).
In brackets after ≈: the same amount, converted by molar mass. Read-outs that look alike come from different tables or passages of the source.

Experiments:
L. major promastigotes = test: L. major promastigote dose response assay (alamarBlue/resazurin); format: cell-based; conditions: 44 hrs + 4 hrs alamarBlue/resazurin, 26° C.
Experimental: (§1) Using a standard alamarBlue™ assay, activity and selectivity were assessed using L. major promastigotes and HepG2 cells, respectively.
All parasite and human cell cultures were grown and manipulated following biosafety level 2 instructions under sterile conditions. L. major FV1, L. amazonensis (MHOM/Br/75/JOSEFA), L. donovani BOB (derived from MHOM/SD/62/1S-CL2D), T. brucei (90-13, 427 strain) and T. cruzi (Dm28c) were used throughout.
All steps were carried out under sterile conditions. Frozen stocks of the relevant Leishmania promastigote species were thawed rapidly and added to Schneider's media. Promastigotes were grown at 26° C. in Nunc EasYFlask 25 cm^2 Nunclon Delta Surface (ThermoScientific) and frozen stocks were prepared on low passage cultures (p2-4) by pelleting the cells by centrifugation and resuspending in Schneider's media with 10% DMSO. The cultures were aliquoted into cryovials (Starlab) and cooled slowly to −150° C. for long term storage.
All steps were carried out under sterile conditions. […] Cycloheximide or amphotericin B were used as positive controls and 2% DMSO was used as a negative control. alamarBlue® (ThermoFisher scientific) or resazurin solution was added to each well and incubated for a further 4 hrs at 26° C. Cell-viability was determined using a BioTek™ FLx800 microplate reader with Gen5® 1.08 data analysis software (BioTek) by monitoring fluorescence emission (λex 560/λem 590 nm). Dose response curves were fitted using sigmoidal regression analysis (GraphPad Prism 8 software) and used to calculate EC50 values.

[1] = test system: L. amazonensis promastigotes; test: L. amazonensis promastigote dose response assay (alamarBlue/resazurin); format: cell-based; conditions: 44 hrs + 4 hrs alamarBlue/resazurin, 26° C., read-out: EC50 (L. amaz)/μM
[2] = test system: L. donovani promastigotes; test: L. donovani promastigote dose response assay (resazurin); format: cell-based; conditions: promastigotes, 72 hrs at 26° C., resazurin, read-out: EC50 (L. don)/μM
HepG2 cells = test: HepG2 cytotoxicity dose response assay; conditions: read-out: CC50 (HepG2)/μM, 44 hrs + 4 hrs alamarBlue/resazurin
Experimental: as §1
All steps were carried out under sterile conditions. HepG2 cells were thawed rapidly into DMEM. Cells were grown at 37° C., 5% CO2 for >5 days in T-75 CytoOne® Flask, TC-Treated, Vented flasks (Starlab) in a Sanyo MCO-18M incubator. […] The trypsin was deactivated by addition of DMEM. The cells were homogenised and 5 mL of cell culture was added to 20 mL fresh DMEM. Cells were split 1:4 every 3 days. Frozen stocks were prepared in the same way as the passage, but resuspended into DMEM with 10% DMSO, aliquoted into cryovials (Starlab) and cooled slowly to −150° C. for long term storage.
All steps were carried out under sterile conditions. 80-100% confluent HepG2 were plated into Corning™ Costar™ 96-Well Flat-Bottom Microplates (Fisher Scientific) by adding 200 μL of a homogenous dispersion of cells at a concentration of 0.6×10^5 cells mL^−1 before incubation at 37° C., 5% CO2 overnight. […] The plates were incubated at 37° C., 5% CO2 for 44 hrs in a Sanyo MCO-18M incubator. alamarBlue® (ThermoFisher scientific) or resazurin solution (10 μL) was added to each well and incubated for a further 4 hrs at 37° C., 5% CO2. Cell-viability was determined using a BioTek™ FLx800 microplate reader with Gen5® 1.08 data analysis software (BioTek) by monitoring fluorescence emission (Nex 560/hem 590 nm). Dose response curves were fitted using sigmoidal regression analysis (GraphPad Prism 8 software) and used to calculate EC50 values.

Kinetic solubility = conditions: for solubility at 2 h: kinetic from dmso stock
From the text: All chemicals and solvents were sourced from commercial suppliers. Buffers were made up using purified water from a MilliQ® water purification system. Biorelevant buffers (FESSIF, FASSIF and FASSGF) were purchased from Biorelevant and made up according to manufacturer's instructions. 15% FBS (heat inactivated, South American origin, ThermoFisher scientific) in PBS (Fisher Scientific) was filter sterilised (0.22 μm Fisherbrand™ Sterile PES Syringe Filter, Fisher Scientific) before use. Sodium taurocholate was purchased from Merck.
λmax was determined for each compound from the UV-Vis absorption spectrum of a 200 LIM compound solution in buffer of interest using a Varian Cary® 100 UV-Vis Spectrophotometer. A calibration curve of λmax VS concentration was obtained by serial dilution of compound from 200 μM in the buffer of interest, correcting for background buffer absorption. For each sample, a DMSO solution of compound was incubated in buffer of interest (<5% DMSO) for 2 hrs at RT. The solution was filtered (0.22 μm Fisherbrand™ Sterile PES Syringe Filter, Fisher Scientific) or centrifuged (14,500 rpm, 10 min) to remove undissolved debris and the supernatant was removed and diluted as required. The corrected UV absorption of the supernatant at Amax Was measured using a Varian Cary® 100 UV-Vis Spectrophotometer and compared to the calibration curve to determine compound solubility.

[3] = set-up: species or system swiss albino mice; conditions: mouse, in vivo
Experimental: DMPK studies were performed by GVK BIO Sciences Pvt Ltd Hyderabad, India, in collaboration with LifeArc. Three swiss albino mice per experiment were inoculated (IP or oral) with compound at 10 mg kg^−1 in 10% DMSO (2 mg mL^−1) on day 1. A small blood sample (50 μL) was taken after 15 minutes, 30 minutes, 1 hr, 2 hr, 4 hr, 6 hr, 8 hr and 24 hr. Proteins were precipitated in acetonitrile and the supernatant was diluted in 1:1 methanol:water and subject to LCMS analysis. The concentration of compound in the blood was determined by comparing the peak area to a calibration curve.

S. aureus (FDA209P) = test: Antibacterial MIC/growth assay, S. aureus; format: cell-based; conditions: 16 hours at 37° C., absorbance 600 nm
Experimental: DMSO was used as a solvent control at a maximum final concentration of 10% (a greater percentage than would be achieved using the compounds at the concentrations in question). Plates were incubated at 37° C. with shaking for 16 hours before measuring absorbance at 600 nm. These values were then used to calculate percentage growth at each dilution of compound in comparison to growth in the absence of compound. The following day, the contents of each well were resuspended using a multichannel pipette, and 5 μl from each well was then applied to LB agar plates. These were incubated at 30° C. in a stationary incubator for 16 hours before imaging.

[4] = kinetic solubility in FESSIF, 2 hrs at RT
[5] = kinetic solubility in PBS, 2 hrs at RT

Compound	EC50 (L. major promastigotes) [µM]	EC50 [1] [µM]	EC50 [2] [µM]	Solubility (PBS)/μM (Kinetic solubility; [5]) [µM]	also measured
CNC(=O)c1ccc(C)cc1NC(=O)c1ccc([N+](=O)[O-])s1 [Compound 44, N-[5-methyl-2-(methylcarbamoyl)phenyl]-5′-nitrothiophene-2′-carboxamide]	0.34	0.027	0.005	<7.4	CC50 (HepG2 cells): 31 µM; Solubility (FESSIF)/μM (Kinetic solubility; [4]): 65 µM (≈ 20.8 µg/mL)
CNC(=O)c1ccc(Br)cc1NC(=O)c1ccc([N+](=O)[O-])s1 [Compound 46, N-[5-bromo2-(methylcarbamoyl)phenyl]-5′-nitrothiophene-2′-carboxamide]	0.57	0.048	0.12	<2.5	CC50 (HepG2 cells): 7.2 µM; Solubility (FESSIF)/μM (Kinetic solubility; [4]): 210 µM (≈ 80.7 µg/mL)
NC(=O)c1ccccc1NC(=O)c1ccc([N+](=O)[O-])s1 [Compound 27, N-(2-carbamoylphenyl)-5′-nitrothiophene-2′-carboxamide]	0.47	0.079	–	–	Solubility (FESSIF)/μM (Kinetic solubility): 90 µM (≈ 26.2 µg/mL); Solubility (PBS)/μM (Kinetic solubility): <2.5 µM
CNC(=O)c1ccc(OC)cc1NC(=O)c1ccc([N+](=O)[O-])s1 [Compound 43, N-[5-methoxy-2-(methylcarbamoyl)phenyl]-5′-nitrothiophene-2′-carboxamide]	0.33	0.021	0.006	<7.4	CC50 (HepG2 cells): > 100 µM; Solubility (FESSIF)/μM (Kinetic solubility; [4]): 38 µM (≈ 12.7 µg/mL)
CNC(=O)c1ccsc1NC(=O)c1ccc([N+](=O)[O-])o1 [Compound 17, N-[3-(methylcarbamoyl)thiophen-2-yl]-5′-nitrofuran-2′-carboxamide]	–	–	–	–	EC50 (L. major promastigotes; Leishmania major, 48 h): 0.37 µM; EC50 ([1]; Leishmania amazonensis, 48 h): 0.33 µM; EC50 ([2]; Leishmania donovani): 0.2 µM
CNC(=O)c1ccc(OCCOCCOC)cc1NC(=O)c1ccc([N+](=O)[O-])s1 [Compound 51, N-{5-[2″-(2″-methoxyethoxy)ethoxy]-2-(methylcarbamoyl)phenyl}-5′-nitrothiophene-2′-carboxamide]	–	–	–	–	EC50 (L. major promastigotes; Leishmania major, 48 h): 0.32 µM; EC50 ([1]; Leishmania amazonensis, 48 h): 0.22 µM; EC50 ([2]; Leishmania donovani): 0.19 µM; solubility at 2 h (Kinetic solubility; FASSGF, fassgf or other biorelevant): 11 µM (≈ 4.66 µg/mL); solubility at 2 h (Kinetic solubility; FASSIF): < 7.4 µM; solubility at 2 h (Kinetic solubility; FESSIF): 7.26 µM (≈ 3.07 µg/mL); solubility at 2 h (Kinetic solubility; PBS, aqueous buffer): 2.27 µM (≈ 0.961 µg/mL)
CNC(=O)c1ccc(C(F)(F)F)cc1NC(=O)c1ccc([N+](=O)[O-])s1 [Compound 45, N-[2-(methylcarbamoyl)-5-(trifluoromethyl)phenyl]-5′-nitrothiophene-2′-carboxamide]	1.84	0.24	–	6.5 (≈ 2.43 µg/mL)	CC50 (HepG2 cells): 13 µM; Solubility (FESSIF)/μM (Kinetic solubility; [4]): 250 µM (≈ 93.3 µg/mL)
Methyl 2-(5′-nitrothiophene-2′-amido)thiophene-3-carboxylate [Compound 3]	0.59	0.91	0.3	–	pharmacokinetic profile [3]: poor pharmacokinetic profiles
CNC(=O)c1ccccc1NC(=O)c1ccc([N+](=O)[O-])s1 [Compound 28, N-[2-(methylcarbamoyl)phenyl]-5′-nitrothiophene-2′-carboxamide]	0.65	0.052	0.012	8.5 (≈ 2.6 µg/mL)	CC50 (HepG2 cells): 5 µM; Solubility (FESSIF)/μM (Kinetic solubility; [4]): 143 µM (≈ 43.7 µg/mL)
NC(=O)c1ccccc1CNC(=O)c1ccc([N+](=O)[O-])s1 [Compound 47, N-(2-carbamoylbenzyl)-5′-nitrothiophene-2′-carboxamide]	–	–	–	–	EC50 (L. major promastigotes; Leishmania major, 48 h): 21 ± 3 µM; solubility at 2 h (Kinetic solubility; PBS, aqueous buffer): 179 ± 8 µM (≈ 54.7 µg/mL)
CNC(=O)c1ccc(OCCC2CCOCC2)cc1NC(=O)c1ccc([N+](=O)[O-])s1 [Compound 54, N-[2-(methylcarbamoyl)-5-[2″-(oxan-4″-yl)ethoxy]phenyl]-5′-nitrothiophene-2′-carboxamide]	–	–	–	–	EC50 (L. major promastigotes; Leishmania major, 48 h): 0.33 µM; EC50 ([1]; Leishmania amazonensis, 48 h): 0.46 µM; EC50 ([2]; Leishmania donovani): 0.34 µM; solubility at 2 h (Kinetic solubility; FESSIF): 47 µM (≈ 20.4 µg/mL); solubility at 2 h (Kinetic solubility; PBS, aqueous buffer): 3.7 µM (≈ 1.6 µg/mL); inhibition of growth of S. aureus (S. aureus (FDA209P)): effective at inhibiting the bacteria at low concentrations
Ethyl 2-(5′-nitrothiophene-2′-amido)thiophene-3-carboxylate [Compound 4]	0.93	1.85	–	–	pharmacokinetic profile [3]: poor pharmacokinetic profiles
N-(3-carbamoylthiophen-2-yl)-5′-nitrothiophene-2′-carboxamide [Compound 1]	0.52	0.042	0.004	–	pharmacokinetic profile [3]: poor pharmacokinetic profiles
CNC(=O)c1ccc(C(C)(C)C)cc1NC(=O)c1ccc([N+](=O)[O-])s1 [Compound 55, N-[5-tert-butyl-2-(methylcarbamoyl)phenyl]-5′-nitrothiophene-2′-carboxamide]	–	–	–	–	EC50 (L. major promastigotes; Leishmania major, 48 h): 1.35 µM; EC50 ([1]; Leishmania amazonensis, 48 h): 2.5 µM; EC50 ([2]; Leishmania donovani): 1.3 µM; solubility at 2 h (Kinetic solubility; FESSIF): 260 µM (≈ 94 µg/mL); solubility at 2 h (Kinetic solubility; PBS, aqueous buffer): < 2.5 µM
N-methyl-2-(5′-nitrothiophene-2′-amido)thiophene-3-carboxamide [Compound 2]	0.99	0.29	0.033	–	pharmacokinetic profile [3]: poor pharmacokinetic profiles
O=C(Nc1ccccc1)c1ccc([N+](=O)[O-])s1 [Compound 33, 5′-nitro-N-phenylthiophene-2′-carboxamide]	4.06	3.6	0.93	15 (≈ 3.72 µg/mL)	–
CNC(=O)C1CCCC1NC(=O)c1ccc([N+](=O)[O-])s1 (racemic) [Compound 25, N—[±2′-(methylcarbamoyl)cyclopentyl]-5′-nitrothiophene-2-carboxamide]	20	8	3.4	–	–
N-(3-cyanothiophen-2-yl)-5′-nitrothiophene-2′-carboxamide [Compound 5]	1.1	2.1	1.12	–	–
